Laboratory results taken from article PMC5407577, “Functional and genetic evidence that nucleoside transport is highly conserved in Leishmania species: Implications for pyrimidine-based chemotherapy” (International Journal for Parasitology: Drugs and Drug …, 2017).

Columns and labels:
Lmex5FURes [1] = format: cell-based, Leishmania mexicana; conditions: 0.5 μM radiolabel
Procedure: (§1) Using the standard uptake technique as described for T. brucei and Leishmania species ([Wallace et al., 2002], [Al-Salabi and De Koning, 2005], [Gudin et al., 2006]), the dose- or time-dependent uptake of radiolabeled permeants was investigated.
(§2) Briefly, cells in the mid-to-late logarithmic stage of growth were harvested by centrifugation for 10 min at 1500×g. The cells were washed twice with transport assay buffer (AB: 33 mM HEPES, 98 mM NaCl, 4.6 mM KCl, 0.55 mM CaCl2, 0.07 mM MgSO4, 5.8 mM NaH2PO4, 0.3 mM MgCl2, 23 mM NaHCO3, 14 mM glucose, pH 7.3), resuspended at a density of 10^8 cells ml^−1 in AB, and left for 20–30 min at room temperature to recover from centrifugation stress. One hundred microliters of cell suspension was incubated at ambient temperature for a predetermined time with 100 μl radiolabeled test compound, in the presence or absence of unlabeled substrate or other competitive inhibitors. The incubation was terminated by the addition of ice-cold stop solution (AB containing saturating levels, usually 10 mM, of unlabeled permeant) and centrifugation through oil for 1 min at 13,000 × g. […] Radioactivity was determined by liquid scintillation counting in a Beckman LS6000 TA scintillation counter. Saturation data, inhibition data, and time courses were plotted to equations for linear or non-linear regression (hyperbolic or sigmoid curves), as appropriate. All experiments were performed in triplicate and on at least three independent occasions.

LmexNT1 = format: cell-based, Leishmania mexicana; conditions: inhibition of 0.25 μM [3H]-uridine uptake in the presence of 1 mM uracil
Procedure: as §1, §2

LmexUU1 = format: cell-based, Leishmania mexicana; conditions: inhibition of [3H]-uracil uptake, 4 min
Procedure: as §1, §2

[2] = test system: L. mexicana promastigotes WT; experiment: Alamar blue drug sensitivity assay, L. mexicana WT; format: cell-based, Leishmania mexicana; conditions: Leishmania mexicana, 72 h, WT promastigotes, 72 h + 48 h with dye; n ≥ 4; read-out: EC50
Procedure: (§3) Sensitivity assays of Leishmania strains to various drugs using the viability dye resazurin (Alamar Blue) (Sigma-Aldrich) were performed using a protocol adapted from [Räz et al. (1997)], as described ([Al-Salabi et al., 2003], [Gould et al., 2008]). Pentamidine and diminazene were used as non-nucleoside controls and were obtained from Sigma-Aldrich, as were many purines, pyrimidines, and analogs, with the exceptions of 2-thiouridine and 4-thiouridine (TriLink BioTechnologies, San Diego, CA); 5′-deoxyuridine, and 2′-3′-dideoxyuridine (Carbosynth, Compton, UK); 5-fluoro-2′-deoxyuridine (Fluka); and 2-thiouracil (ICN Biomedicals, Cambridge, UK). A preliminary promastigote culture was diluted to a density of 2 × 10^6 cells/ml, of which 100 μl was added to wells of 96-well plates pre-loaded with 100 μl of doubling dilutions of test compounds, resulting in a final density of 1 × 10^6 cells/ml; the dilutions were over 2 rows of the plate (23 concentrations), with the last well containing only medium and serving as the no-drug control. The plates were incubated at 25 °C for 72 h before adding the Alamar Blue dye (20 μl of 12.5 mg resazurin sodium salt (Sigma) in 100 ml phosphate buffered saline (PBS; pH 7.4)). Since Leishmania parasites metabolize the Alamar Blue dye slower than trypanosomes ([Gould et al., 2008]), the cells were incubated with the dye for a further period of 48 h before measuring the fluorescence, using a FLUOstar Optima fluorimeter (BMG Labtech) at wavelengths of 544 nm for excitation and 620 nm for emission. […] Each experiment was performed independently at least 4 times; statistical significance was determined using Student's unpaired t-test.

Lmex5F2′dURes = experiment: microbe, parasite or virus in culture; format: cell-based, Leishmania mexicana
Procedure: as §3

Lmex5FURes [3] = experiment: microbe, parasite or virus in culture; format: cell-based, Leishmania mexicana
Procedure: as §3

[4] = test system: L. major promastigotes WT; experiment: Alamar blue drug sensitivity assay, L. major WT; format: cell-based, Leishmania major; conditions: Leishmania major, 72 h, WT promastigotes, 72 h + 48 h with dye; n ≥ 4; read-out: EC50
Procedure: as §3

Lmaj5F2′dURes = experiment: microbe, parasite or virus in culture; format: cell-based, Leishmania major
Procedure: as §3

Lmaj5FURes = experiment: microbe, parasite or virus in culture; format: cell-based, Leishmania major
Procedure: as §3

L. major promastigotes = experiment: metabolomic analysis of treated L. major promastigotes; format: cell-based, Leishmania major; conditions: 100 μM, 8 h
Procedure: (§4) Metabolomics analysis of the Leishmania promastigotes was undertaken in triplicate, exactly as described ([Ali et al., 2013a]). Briefly, cells were grown to log phase stage, resuspended at 2 × 10^6 cells/ml in 50 ml HOMEM/FBS and incubated 8 h with 100 μM of test compound (standard conditions) before transfer to a 50-ml centrifuge tube for instantaneous cooling (dry ice/ethanol bath, 4 °C) and centrifugation (2500 rpm, 10 min, 4 °C). The pellet was lysed with 200 μl of chloroform/methanol/water (1:3:1 v/v/v) containing mass spectrometry standards, and vigorous mixing (1 h, 4 °C); cell debris was removed by centrifugation and the metabolite extracts were stored in HPLC vials at −80 °C. Control samples were prepared in parallel and included untreated cells, unused growth medium, test compound solution and extraction solvent blanks. The analysis used a hydrophilic interaction liquid chromatography (HILIC-LC) fitted with a zwitterionic ZIC-pHILIC column (Merck Sequant), coupled to high resolution mass spectrometry (MS) using a Thermo Q-Exactive, and metabolomic data outputs were analyzed using the IDEOM application (http://mzmatch.sourceforge.net/ideom.php) with default parameters ([Creek et al., 2012]) exactly as described ([Ali et al., 2013a]). The lower limit of detection was set to 500 intensity units for all reported metabolites, in order to prevent spurious identification of low level signals.
(§5) The mechanism of action of the fluorinated pyrimidines was investigated using a metabolomics approach, where promastigotes of L. mexicana and L. major were incubated for 8 h with 100 μM of either 5-FU, 5F-2′dUrd or 5F-Urd prior to metabolite extraction and mass spectrometric analysis as described ([Ali et al., 2013a], [Alkhaldi et al., 2015]). These conditions were chosen to allow for significant metabolite accumulation while not affecting cell viability or growth rate, which could broadly affect metabolite levels.

[5] = test system: L. mexicana promastigotes; experiment: metabolomic analysis of treated L. mexicana promastigotes; format: cell-based, Leishmania mexicana; conditions: 100 μM, 8 h
Procedure: as §4, §5

[6] = n = 3, SEM, untreated: not detected (<500)

## O=c1[nH]cc(F)c(=O)[nH]1 [5-FU, 5-Fluorouracil]
Lmex5FURes [1]
  uptake of radiolabel, lower than in WT control cells: 94.5%
LmexNT1
  Ki: > 5000 µM
LmexUU1
  Ki: 56.3 ± 6.4 µM
[2]
  EC50: 9.3 ± 0.6 µM
Lmex5F2′dURes; Leishmania mexicana
  EC50: 1770 ± 301 µM
Lmex5F2′dURes; Lmex5F2′dURes vs L. mexicana WT
  RF (Resistance Factor = IC50 (resistant clone)/IC50 (WT)): 190
Lmex5FURes [3]; Leishmania mexicana
  EC50: 1370 ± 123 µM
Lmex5FURes [3]; Lmex5FURes vs L. mexicana WT
  RF (Resistance Factor = IC50 (resistant clone)/IC50 (WT)): 147
[4]
  EC50: 8.5 ± 0.6 µM
Lmaj5F2′dURes; Leishmania major
  EC50: 12 ± 1 µM
Lmaj5F2′dURes; Lmaj5F2′dURes vs L. major WT
  RF (Resistance Factor = IC50 (resistant clone)/IC50 (WT)): 1.3
Lmaj5FURes; Leishmania major
  EC50: 150 ± 5 µM
Lmaj5FURes; Lmaj5FURes vs L. major WT
  RF (Resistance Factor = IC50 (resistant clone)/IC50 (WT)): 17
L. major promastigotes; [6]
  dCMP peak intensity: 5130 arbitrary units
L. major promastigotes; untreated: 712 ± 105
  dUrd peak intensity: 5177 ± 1445 arbitrary units
L. major promastigotes; untreated: 995 ± 109
  dCTP peak intensity: 4541 ± 565 arbitrary units
L. major promastigotes; untreated: 2992 ± 173
  dAdo peak intensity: 6996 ± 2423 arbitrary units
L. major promastigotes; untreated: 6192 ± 910
  dAMP peak intensity: 19379 ± 3774 arbitrary units
L. major promastigotes; untreated: not detected
  dADP peak intensity: not detected
  dCDP peak intensity: 6197 ± 1588 arbitrary units
[5]; [6]
  dCMP peak intensity: 5636 ± 3288 arbitrary units
[5]; untreated: 304 ± 155
  dUrd peak intensity: 4166 ± 1560 arbitrary units
[5]; untreated: 1458
  dADP peak intensity: 8948 ± 461^∗∗ arbitrary units
[5]; untreated: 2585 ± 811
  dAdo peak intensity: 6476 ± 2403 arbitrary units
[5]; untreated: 10660 ± 2897
  dAMP peak intensity: 20366 ± 5358 arbitrary units
[5]; untreated: not detected
  dCDP peak intensity: 4803 ± 433^∗∗ arbitrary units
  dCTP peak intensity: 2913 ± 1346 arbitrary units
